Source: ChEMBL document CHEMBL3400009, “A FRET-based assay for screening SIRT5 specific modulators” (Bioorg Med Chem Lett, 2015)
Activity calls are given as the source filed them. The calls are words filed in the database; no cut-off is given here.

Key:
[1] = target: T1, NAD-dependent protein deacylase sirtuin-5, mitochondrial (Homo sapiens, UniProt Q9NXA8); assay: Inhibition of human SIRT5 assessed as reduction in desuccinylase activity using KQTAR(SuK)STGGKA substrate
Target sequence in this assay (Q9NXA8 whole entry): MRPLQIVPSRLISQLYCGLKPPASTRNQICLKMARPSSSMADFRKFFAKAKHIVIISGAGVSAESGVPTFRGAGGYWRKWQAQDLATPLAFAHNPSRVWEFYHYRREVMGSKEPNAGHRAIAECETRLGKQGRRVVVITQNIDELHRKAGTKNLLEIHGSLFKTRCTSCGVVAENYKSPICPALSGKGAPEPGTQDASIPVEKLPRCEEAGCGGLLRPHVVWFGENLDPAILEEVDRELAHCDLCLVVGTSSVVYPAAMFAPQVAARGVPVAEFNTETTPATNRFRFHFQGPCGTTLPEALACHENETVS

[2] = target: T1, NAD-dependent protein deacylase sirtuin-5, mitochondrial; assay: Inhibition of SIRT5 (unknown origin) at 30 uM using (DABCYL)ISGASE(SuK)DIVHSE(EDANS)G peptide substrate incubated for 1 hrs followed by 1 hr incubation with trypsin and nicotinamide by FRET-based assay
Target sequence in this assay (Q9NXA8 37-310 limits assumed): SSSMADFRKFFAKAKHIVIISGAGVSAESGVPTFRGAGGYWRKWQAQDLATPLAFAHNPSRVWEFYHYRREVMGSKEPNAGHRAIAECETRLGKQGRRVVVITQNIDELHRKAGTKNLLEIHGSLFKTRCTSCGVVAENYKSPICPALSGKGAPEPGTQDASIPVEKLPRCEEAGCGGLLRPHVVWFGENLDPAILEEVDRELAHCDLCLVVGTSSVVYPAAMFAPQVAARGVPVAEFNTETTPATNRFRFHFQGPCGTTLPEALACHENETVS

With `N#C/C(=C\c1ccc(-c2cc(Cl)ccc2Cl)o1)C(=O)Nc1cccc2ncccc12` the IC50 [1] was > 100 µM and the inhibition [2] was “inactive”.
In the case of `Cc1ccc(C(=O)Nc2ccc(S(=O)(=O)O)c3cc(S(=O)(=O)O)cc(S(=O)(=O)O)c23)cc1NC(=O)c1cccc(NC(=O)Nc2cccc(C(=O)Nc3cc(C(=O)Nc4ccc(S(=O)(=O)O)c5cc(S(=O)(=O)O)cc(S(=O)(=O)O)c45)ccc3C)c2)c1`, the inhibition [2] is reported as “Active”.
`NC(=O)c1cccnc1` was tested, and the inhibition [2] was “inactive”.
For `CC(NC(=O)c1ccccc1/N=C/c1c(O)ccc2ccccc12)c1ccccc1` (stereo not drawn) [SIRTINOL], the IC50 [1] was > 100 µM and the inhibition [2] was “inactive”.
For `O=C1CCc2c(ccc3ccccc23)O1` [SPLITOMICIN], the IC50 [1] was > 100 µM and the inhibition [2] was “inactive”.
